Values after ≈ are worked out from the molar mass of the structure shown.
Tests used:
[1] = system: S. aureus (Gram-positive); experiment: Antibacterial activity, broth microdilution method; type: cell-based; conditions: Staphylococcus aureus, read-out: S. aureus (Gram +ve) MIC
M. tuberculosis H37Rv = experiment: Antitubercular activity, Microplate Alamar Blue test (MABA); type: cell-based; conditions: Mycobacterium tuberculosis
E. coli (Gram-negative) = experiment: Antibacterial activity, broth microdilution method; type: cell-based; conditions: Escherichia coli, read-out: E. coli (Gram–ve) MIC
InhA = InhA (Mycobacterium tuberculosis, UniProt P9WGR1); experiment: Enoyl ACP reductase (InhA) inhibition; type: biochemical
[2] = system: Mammalian Vero cell-lines; experiment: MTT-based cytotoxicity activity; conditions: Chlorocebus sabaeus, means ± SEM of three independent experiments, read-out: IC50 MV cell-lines
MtDHFR = MtDHFR (Mycobacterium tuberculosis, UniProt P9WNX1); experiment: biochemical; type: biochemical; conditions: for MtDHFR inhibition compared with trimethoprim: in words
[3] = system: A549 (lung adenocarcinoma) cell-lines; experiment: MTT-based cytotoxicity activity; type: cell-based; conditions: Homo sapiens, means ± SEM of three independent experiments

InhA, sequence (P9WGR1 whole entry, looked up): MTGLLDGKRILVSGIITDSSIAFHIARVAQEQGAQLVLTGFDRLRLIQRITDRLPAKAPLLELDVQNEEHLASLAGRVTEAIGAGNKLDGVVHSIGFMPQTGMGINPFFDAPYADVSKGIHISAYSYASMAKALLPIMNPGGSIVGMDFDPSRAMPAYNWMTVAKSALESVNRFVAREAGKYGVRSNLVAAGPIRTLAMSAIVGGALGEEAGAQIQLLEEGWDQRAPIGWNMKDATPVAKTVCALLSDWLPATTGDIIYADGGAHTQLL
MtDHFR, sequence (P9WNX1 whole entry): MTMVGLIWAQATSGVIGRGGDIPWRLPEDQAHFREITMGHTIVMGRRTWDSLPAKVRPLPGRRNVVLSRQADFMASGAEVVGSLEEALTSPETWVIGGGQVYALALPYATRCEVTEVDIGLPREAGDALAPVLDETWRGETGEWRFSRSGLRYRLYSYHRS

SMILES | MIC [1] | MIC (M. tuberculosis H37Rv) | MIC (E. coli (Gram-negative)) | inhibition at 50 µM (InhA) | IC50 [2] | IC50 (MtDHFR) | MtDHFR inhibition compared with trimethoprim (MtDHFR) | IC50 [3]
Cc1ccc(C)n1-c1ccc(C(=O)NNC(=O)COc2cc(O)cc(O)c2)cc1 [Compound 5g, N’-(2-(3,5-dihydroxyphenoxy)acetyl)-4-(2,5-dimethyl-1H-pyrrol-1-yl) benzohydrazide] | 100 µg/mL (≈ 253 µM) | 3.12 µg/mL (≈ 7.89 µM) | 3.12 µg/mL (≈ 7.89 µM) | – | – | – | – | –
O=C(COc1ccccc1Cl)NNC(=O)c1ccc(-n2cccc2)cc1 [Compound 3j, N’-(2-(2-chlorophenoxy)acetyl)-4-(1H-pyrrol-1-yl)benzohydrazide] | 100 µg/mL (≈ 270 µM) | 12.5 µg/mL (≈ 33.8 µM) | 6.25 µg/mL (≈ 16.9 µM) | – | – | – | – | –
Cc1ccc(OCC(=O)NNC(=O)c2ccc(-n3c(C)ccc3C)cc2)c(C)c1 [Compound 5d, 4-(2,5-dimethyl-1H-pyrrol-1-yl)-N’-(2-(2,4-dimethylphenoxy)acetyl) benzohydrazide] | 100 µg/mL (≈ 255 µM) | 1.6 µg/mL (≈ 4.09 µM) | 3.12 µg/mL (≈ 7.97 µM) | 62% | 226 ± 0.5 µM | 56 µM | greater inhibition characteristics than trimethoprim | 222 ± 0.5 µM
Cc1cc(C)cc(OCC(=O)NNC(=O)c2ccc(-n3c(C)ccc3C)cc2)c1 [Compound 5h, 4-(2,5-dimethyl-1H-pyrrol-1-yl)-N’-(2-(3,5-dimethylphenoxy)acetyl) benzohydrazide] | 100 µg/mL (≈ 255 µM) | 3.12 µg/mL (≈ 7.97 µM) | 3.12 µg/mL (≈ 7.97 µM) | – | – | – | – | –
O=C(COc1ccc(Cl)cc1)NNC(=O)c1ccc(-n2cccc2)cc1 [Compound 3f, N’-(2-(4-chlorophenoxy)acetyl)-4-(1H-pyrrol-1-yl)benzohydrazide] | 100 µg/mL (≈ 270 µM) | 6.25 µg/mL (≈ 16.9 µM) | 12.5 µg/mL (≈ 33.8 µM) | – | – | 122 µM | – | –
Cc1ccc(C)n1-c1ccc(C(=O)NNC(=O)COc2ccc(Cl)cc2)cc1 [Compound 5f, N’-(2-(4-chlorophenoxy)acetyl)-4-(2,5-dimethyl-1H-pyrrol-1-yl) ben zohydrazide] | 100 µg/mL (≈ 251 µM) | 3.12 µg/mL (≈ 7.84 µM) | 6.25 µg/mL (≈ 15.7 µM) | – | – | – | – | –
Cc1ccc(C)n1-c1ccc(C(=O)NNC(=O)COc2ccccc2Cl)cc1 [Compound 5j, N’-(2-(2-chlorophenoxy)acetyl)-4-(2,5-dimethyl-1H-pyrrol-1-yl) ben zohydrazide] | 100 µg/mL (≈ 251 µM) | 3.12 µg/mL (≈ 7.84 µM) | 6.25 µg/mL (≈ 15.7 µM) | – | – | – | – | –
Cc1ccc(C)n1-c1ccc(C(=O)NNC(=O)COc2cccc(O)c2)cc1 [Compound 5i, 4-(2,5-dimethyl-1H-pyrrol-1-yl)-N’-(2-(3-hydroxyphenoxy)acetyl) benzohydrazide] | 100 µg/mL (≈ 264 µM) | 6.25 µg/mL (≈ 16.5 µM) | 3.12 µg/mL (≈ 8.22 µM) | – | – | – | – | –
Cc1ccc(C)n1-c1ccc(C(=O)NNC(=O)COc2ccccc2)cc1 [Compound 5a, 4-(2,5-dimethyl-1H-pyrrol-1-yl)-N’-(2-phenoxyacetyl) benzohydrazide] | 100 µg/mL (≈ 275 µM) | 6.25 µg/mL (≈ 17.2 µM) | 6.25 µg/mL (≈ 17.2 µM) | 26% | – | 98 µM | – | –
NNC(=O)c1ccncc1 [INH, Isoniazid, reference compound] | – | – | – | – | > 450 µM | – | – | > 450 µM
O=C(COc1cc(O)cc(O)c1)NNC(=O)c1ccc(-n2cccc2)cc1 [Compound 3g, N’-(2-(3,5-dihydroxyphenoxy)acetyl)-4-(1H-pyrrol-1-yl) benzohydrazide] | 100 µg/mL (≈ 272 µM) | 3.12 µg/mL (≈ 8.49 µM) | 1.6 µg/mL (≈ 4.36 µM) | 63% | 216 ± 0.5 µM | 20 µM | greater inhibition characteristics than trimethoprim | 216 ± 0.5 µM
O=C(O)c1cn(C2CC2)c2cc(N3CCNCC3)c(F)cc2c1=O [Ciprofloxacin, reference compound] | 2 µg/mL (≈ 6.04 µM) | – | 2 µg/mL (≈ 6.04 µM) | – | – | – | – | –
NC(=O)c1cnccn1 [Pyrazinamide, reference compound] | – | 3.12 µg/mL (≈ 25.3 µM) | – | – | – | – | – | –
Cc1ccc(OCC(=O)NNC(=O)c2ccc(-n3cccc3)cc2)c(C)c1 [Compound 3d, N’-(2-(2,4-dimethylphenoxy)acetyl)-4-(1H-pyrrol-1yl)benzohydrazide] | 100 µg/mL (≈ 275 µM) | 3.12 µg/mL (≈ 8.59 µM) | 1.6 µg/mL (≈ 4.4 µM) | 48% | 216 ± 0.4 µM | 32 µM | greater inhibition characteristics than trimethoprim | 212 ± 0.4 µM
Cc1cccc(OCC(=O)NNC(=O)c2ccc(-n3cccc3)cc2)c1 [Compound 3e, 4-(1H-pyrrol-1-yl)-N’-(2-(m-tolyloxy)acetyl)benzohydrazide] | 100 µg/mL (≈ 286 µM) | 6.25 µg/mL (≈ 17.9 µM) | 12.5 µg/mL (≈ 35.8 µM) | – | – | – | – | –
Cc1cccc(OCC(=O)NNC(=O)c2ccc(-n3c(C)ccc3C)cc2)c1 [Compound 5e, 4-(2,5-dimethyl-1H-pyrrol-1-yl)-N’-(2-(m-tolyloxy)acetyl) benzohy drazide] | 100 µg/mL (≈ 265 µM) | 1.6 µg/mL (≈ 4.24 µM) | 3.12 µg/mL (≈ 8.27 µM) | 66% | 220 ± 0.2 µM | 62 µM | greater inhibition characteristics than trimethoprim | 219 ± 0.3 µM
O=C(COc1ccccc1O)NNC(=O)c1ccc(-n2cccc2)cc1 [Compound 3c, N’-(2-(2-hydroxyphenoxy)acetyl)-4-(1H-pyrrol-1-yl)benzohydrazide] | 100 µg/mL (≈ 285 µM) | 3.12 µg/mL (≈ 8.88 µM) | 3.12 µg/mL (≈ 8.88 µM) | 46% | 223 ± 0.7 µM | 25 µM | greater inhibition characteristics than trimethoprim | 224 ± 0.6 µM
Cc1cc(C)cc(OCC(=O)NNC(=O)c2ccc(-n3cccc3)cc2)c1 [Compound 3h, N’-(2-(3,5-dimethylphenoxy)acetyl)-4-(1H-pyrrol-1-yl) benzohydrazide] | 100 µg/mL (≈ 275 µM) | 3.12 µg/mL (≈ 8.59 µM) | 3.12 µg/mL (≈ 8.59 µM) | 59% | 219 ± 0.6 µM | 19 µM | greater inhibition characteristics than trimethoprim | 219 ± 0.1 µM
[H]/N=C(/N)N[C@H]1[C@H](O)[C@@H](O)[C@H](O[C@@H]2O[C@@H](C)[C@](O)(C=O)[C@H]2O[C@@H]2O[C@@H](CO)[C@H](O)[C@@H](O)[C@@H]2NC)[C@@H](N/C(N)=N\[H])[C@@H]1O [Streptomycin, reference compound] | – | 6.25 µg/mL (≈ 10.7 µM) | – | – | – | – | – | –
O=C(COc1cccc(O)c1)NNC(=O)c1ccc(-n2cccc2)cc1 [Compound 3i, N’-(2-(3-hydroxyphenoxy)acetyl)-4-(1H-pyrrol-1-yl)benzohydrazide] | 100 µg/mL (≈ 285 µM) | 12.5 µg/mL (≈ 35.6 µM) | 12.5 µg/mL (≈ 35.6 µM) | – | – | – | – | –
Cc1ccc(OCC(=O)NNC(=O)c2ccc(-n3cccc3)cc2)cc1 [Compound 3b, 4-(1H-pyrrol-1-yl)-N’-(2-(p-tolyloxy)acetyl)benzohydrazide] | 100 µg/mL (≈ 286 µM) | 12.5 µg/mL (≈ 35.8 µM) | 6.25 µg/mL (≈ 17.9 µM) | – | – | – | – | –
Cc1ccc(OCC(=O)NNC(=O)c2ccc(-n3c(C)ccc3C)cc2)cc1 [Compound 5b, 4-(2,5-dimethyl-1H-pyrrol-1-yl)-N’-(2-(p-tolyloxy)acetyl) benzohydrazide] | 100 µg/mL (≈ 265 µM) | 12.5 µg/mL (≈ 33.1 µM) | 12.5 µg/mL (≈ 33.1 µM) | – | – | – | – | –
O=C(COc1ccccc1)NNC(=O)c1ccc(-n2cccc2)cc1 [Compound 3a, N’-(2-phenoxyacetyl)-4-(1H-pyrrol-1-yl) benzohydrazide] | 100 µg/mL (≈ 298 µM) | 12.5 µg/mL (≈ 37.3 µM) | 6.25 µg/mL (≈ 18.6 µM) | – | – | – | – | –
Cc1ccc(C)n1-c1ccc(C(=O)NNC(=O)COc2ccccc2O)cc1 [Compound 5c, 4-(2,5-dimethyl-1H-pyrrol-1-yl)-N’-(2-(2-hydroxyphenoxy)acetyl) benzohydrazide] | 100 µg/mL (≈ 264 µM) | 12.5 µg/mL (≈ 32.9 µM) | 12.5 µg/mL (≈ 32.9 µM) | – | – | – | – | –
